The test system of test [1] is MBNL1 exon 5 inclusion in DM1 myotubes. The test is described as follows: Myotube splicing rescue assay (MBNL1 exon 5 inclusion). The class given is cell-based, human. Particulars: 10 μM, 48-hour incubation.
In the next test the test system is r(CUG)12-MBNL1 complex. The test can be described thus: Inhibition of the r(CUG)12-MBNL1 complex measured by TR-FRET. The test is classed as biochemical. To be noted: Table M; 80 nM RNA, 60 nM MBNL1-His6. On the technique in general: TR-FRET usually uses a lanthanide donor and a delayed reading to cut background.

The structures appear in SMILES notation. Where only a bound is given, the exact number is not on record here.

We go through 25 compounds from patent US10961202B2, “Bis-benzimidazole compounds and methods of using the same” (THE SCRIPPS RESEARCH INSTITUTE, priority 2017, dated 2021).

As a reminder, the IC50 is the concentration that gives 50% inhibition.

As for `CN(CC(=O)NCCN1CCN(CCNC(=O)c2ccc3nc(-c4ccc(-c5nc6ccc(C(=O)NCCN7CCCCC7)cc6[nH]5)cc4)[nH]c3c2)CC1)CC(=O)NCCN1CCN(CCNC(=O)c2ccc3nc(-c4ccc(-c5nc6ccc(C(=O)NCCN7CCCCC7)cc6[nH]5)cc4)[nH]c3c2)CC1` [Compound 405], the “MBNL1 % splicing rescue at 10 μM” value in test [1] was −2.5%. Turning to `CN(C)CCNC(=O)c1ccc(-c2nc3ccc(-c4ccc5nc(-c6ccc(C(=O)N(C)CCOCCOCCOCCOCc7cn(CCCNCC(=O)N8CCC[C@H]8C(=O)N8CCC[C@H]8C(=O)N8CCC[C@H]8C(=O)N8CCC[C@H]8C(=O)N(CCCn8cc(COCCOCCOCCOCCN(C)C(=O)c9ccc(-c%10nc%11ccc(-c%12ccc%13nc(-c%14ccc(C(=O)NCCN(C)C)cc%14)[nH]c%13c%12)cc%11[nH]%10)cc9)nn8)CC(N)=O)nn7)cc6)[nH]c5c4)cc3[nH]2)cc1` [Compound 433], in the test with r(CUG)12-MBNL1 complex, the IC50 is over 200 µM. Compound `CN(C)CCNC(=O)c1ccc(-c2nc3ccc(-c4ccc5nc(-c6ccc(C(=O)NCc7cn(CCCNCC(=O)N8CCC[C@H]8C(=O)N8CCC[C@H]8C(=O)N8CCC[C@H]8C(=O)N8CCC[C@H]8C(=O)N(CCCn8cc(CNC(=O)c9ccc(-c%10nc%11ccc(-c%12ccc%13nc(-c%14ccc(C(=O)NCCN(C)C)cc%14)[nH]c%13c%12)cc%11[nH]%10)cc9)nn8)CC(N)=O)nn7)cc6)[nH]c5c4)cc3[nH]2)cc1` [Compound 434, (S)-N-(2-amino-2-oxoethyl)-N-(3-(4-((4-(2′-(4-((2-(dimethylamino)ethyl)carbamoyl)phenyl)-3H,3′H-[5,5′-bibenzo[d]imidazol]-2-yl)benzamido)methyl)-1H-1,2,3-triazol-1-yl)propyl)-1-((3-(4-((4-(2′-(4-((2-(dimethylamino)ethyl)carbamoyl)phenyl)-3H,3′H-[5,5′-bibenzo[d]imidazol]-2-yl)benzamido)methyl)-1H-1,2,3-triazol-1-yl)propyl)glycyl-L-prolyl-L-prolyl-L-prolyl)pyrrolidine-2-carboxamide] showed an IC50 in the test with r(CUG)12-MBNL1 complex of 10.5 µM. `CN(C)CCNC(=O)c1ccc(-c2nc3ccc(-c4ccc5nc(-c6ccc(C(=O)N(C)CCCc7cn(CCCNCC(=O)N8CCC[C@H]8C(=O)N8CCC[C@H]8C(=O)N8CCC[C@H]8C(=O)N8CCC[C@H]8C(=O)N(CCCn8cc(CCCN(C)C(=O)c9ccc(-c%10nc%11ccc(-c%12ccc%13nc(-c%14ccc(C(=O)NCCN(C)C)cc%14)[nH]c%13c%12)cc%11[nH]%10)cc9)nn8)CC(N)=O)nn7)cc6)[nH]c5c4)cc3[nH]2)cc1` [Compound 435] had an IC50 with r(CUG)12-MBNL1 complex of 13.3 µM. In turn, `CN(C)CCNC(=O)c1ccc(-c2nc3ccc(-c4ccc5nc(-c6ccc(C(=O)Nc7cccc(-c8cn(CCCNCC(=O)N9CCC[C@H]9C(=O)N9CCC[C@H]9C(=O)N9CCCC9C(=O)N9CCC[C@H]9C(=O)N(CCCn9cc(-c%10cccc(NC(=O)c%11ccc(-c%12nc%13ccc(-c%14ccc%15nc(-c%16ccc(C(=O)NCCN(C)C)cc%16)[nH]c%15c%14)cc%13[nH]%12)cc%11)c%10)nn9)CC(N)=O)nn8)c7)cc6)[nH]c5c4)cc3[nH]2)cc1` (stereo partly shown) [Compound 436] displayed an IC50 with r(CUG)12-MBNL1 complex of 2.6 µM.

In the test on r(CUG)12-MBNL1 complex, `CN(C)CCNC(=O)c1ccc(-c2nc3ccc(-c4ccc5nc(-c6ccc(C(=O)NCCOCCOCc7cn(CCCNCC(=O)N8CCCC8C(=O)N8CCC[C@H]8C(=O)N(CCCn8cc(COCCOCCNC(=O)c9ccc(-c%10nc%11ccc(-c%12ccc%13nc(-c%14ccc(C(=O)NCCN(C)C)cc%14)[nH]c%13c%12)cc%11[nH]%10)cc9)nn8)CC(N)=O)nn7)cc6)[nH]c5c4)cc3[nH]2)cc1` (stereo partly shown) [Compound 437] had an IC50 of 7.5 µM. Same read-out and setting: under `CN(C)CCNC(=O)c1ccc(-c2nc3ccc(-c4ccc5nc(-c6ccc(C(=O)NCCOCCOCCOCCOCc7cn(CCCNCC(=O)N8CCCC8C(=O)N8CCC[C@H]8C(=O)N(CCCn8cc(COCCOCCOCCOCCNC(=O)c9ccc(-c%10nc%11ccc(-c%12ccc%13nc(-c%14ccc(C(=O)NCCN(C)C)cc%14)[nH]c%13c%12)cc%11[nH]%10)cc9)nn8)CC(N)=O)nn7)cc6)[nH]c5c4)cc3[nH]2)cc1` (stereo partly shown) [Compound 438] stands over 200 µM; under `CN(C)CCNC(=O)c1ccc(-c2nc3ccc(-c4ccc5nc(-c6ccc(C(=O)N7CCC(C8CCN(C(=O)c9ccc(-c%10nc%11ccc(-c%12ccc%13nc(-c%14ccc(C(=O)NCCN(C)C)cc%14)[nH]c%13c%12)cc%11[nH]%10)cc9)CC8)CC7)cc6)[nH]c5c4)cc3[nH]2)cc1` [Compound 439], 10.9 µM.

For the compound `CN(C)CCNC(=O)c1ccc(-c2nc3ccc(-c4ccc5nc(-c6ccc(C(=O)NCC7CCCCN7C(=O)c7ccc(-c8nc9ccc(-c%10ccc%11nc(-c%12ccc(C(=O)NCCN(C)C)cc%12)[nH]c%11c%10)cc9[nH]8)cc7)cc6)[nH]c5c4)cc3[nH]2)cc1` (stereo not shown) [Compound 440], in the test with r(CUG)12-MBNL1 complex, the IC50 stood at 1.2 µM. Turning to `C[C@H](CNC(=O)c1ccc(-c2nc3ccc(-c4ccc5nc(-c6ccc(C(=O)NCCN(C)C)cc6)[nH]c5c4)cc3[nH]2)cc1)NC(=O)c1ccc(-c2nc3ccc(-c4ccc5nc(-c6ccc(C(=O)NCCN(C)C)cc6)[nH]c5c4)cc3[nH]2)cc1` [Compound 441], the IC50 with r(CUG)12-MBNL1 complex worked out at 66 µM. This IC50 lies about 55-fold higher than the previous one. For `C[C@@H](CNC(=O)c1ccc(-c2nc3ccc(-c4ccc5nc(-c6ccc(C(=O)NCCN(C)C)cc6)[nH]c5c4)cc3[nH]2)cc1)NC(=O)c1ccc(-c2nc3ccc(-c4ccc5nc(-c6ccc(C(=O)NCCN(C)C)cc6)[nH]c5c4)cc3[nH]2)cc1` [Compound 442], the IC50 in the test on r(CUG)12-MBNL1 complex worked out at 6.7 µM. For the compound `CN(C)CCNC(=O)c1ccc(-c2nc3ccc(-c4ccc5nc(-c6ccc(C(=O)Nc7cccc(-c8cn(CCCNCC(=O)N9CCCC9C(=O)N9CCC[C@H]9C(=O)N(CCCn9cc(-c%10cccc(NC(=O)c%11ccc(-c%12nc%13ccc(-c%14ccc%15nc(-c%16ccc(C(=O)NCCN(C)C)cc%16)[nH]c%15c%14)cc%13[nH]%12)cc%11)c%10)nn9)CC(N)=O)nn8)c7)cc6)[nH]c5c4)cc3[nH]2)cc1` (stereo partly shown) [Compound 446], 7.1 µM corresponded to half-maximal inhibition in the test on r(CUG)12-MBNL1 complex (IC50). Same read-out and setting: the same measure for `C[C@@H](NC(=O)CN(CCN)C(=O)c1ccc(-c2nc3cc(-c4ccc5[nH]c(-c6ccc(OCCCN(C)C)cc6)nc5c4)ccc3[nH]2)cc1)C(=O)N[C@H](C)C(=O)N[C@H](C)C(=O)N[C@H](C)C(=O)N(CCNC(=O)c1ccc(-c2nc3cc(-c4ccc5[nH]c(-c6ccc(OCCCN(C)C)cc6)nc5c4)ccc3[nH]2)cc1)CC(N)=O` [Compound 447]: 22.6 µM. On the same count and under the same terms, under `C[C@@H](NC(=O)CNCCNC(=O)c1ccc(-c2nc3cc(-c4ccc5[nH]c(-c6ccc(OCCCN(C)C)cc6)nc5c4)ccc3[nH]2)cc1)C(=O)N[C@H](C)C(=O)N[C@H](C)C(=O)N[C@H](C)C(=O)N(CCNC(=O)c1ccc(-c2nc3cc(-c4ccc5[nH]c(-c6ccc(OCCCN(C)C)cc6)nc5c4)ccc3[nH]2)cc1)CC(N)=O` [Compound 448] stands 3.5 µM. Regarding `CN(C)CCNC(=O)c1ccc(-c2nc3ccc(-c4ccc5nc(-c6ccc(C(=O)N(C)CCCN(C)CCCN(C)C(=O)c7ccc(-c8nc9ccc(-c%10ccc%11nc(-c%12ccc(C(=O)NCCN(C)C)cc%12)[nH]c%11c%10)cc9[nH]8)cc7)cc6)[nH]c5c4)cc3[nH]2)cc1` [Compound 449], half-maximal inhibition in the test with r(CUG)12-MBNL1 complex (IC50) was put at 2.5 µM. `CN(C)CCCN(CCCNC(=O)c1ccc(-c2nc3ccc(-c4ccc5nc(-c6ccc(C(=O)NCCN(C)C)cc6)[nH]c5c4)cc3[nH]2)cc1)C(=O)c1ccc(-c2nc3ccc(-c4ccc5nc(-c6ccc(C(=O)NCCN(C)C)cc6)[nH]c5c4)cc3[nH]2)cc1` [Compound 450] showed an IC50 in the test with r(CUG)12-MBNL1 complex of 29.2 µM. `CN(C)CCNC(=O)c1ccc(-c2nc3ccc(-c4ccc5nc(-c6ccc(C(=O)NCCCN(C)CCCNC(=O)c7ccc(-c8nc9ccc(-c%10ccc%11nc(-c%12ccc(C(=O)NCCN(C)C)cc%12)[nH]c%11c%10)cc9[nH]8)cc7)cc6)[nH]c5c4)cc3[nH]2)cc1` [Compound 451]: the IC50 in the test on r(CUG)12-MBNL1 complex was determined as 14 µM. On the same count and under the same terms, the same measure for `CN(C)CCNC(=O)c1ccc(-c2nc3ccc(-c4ccc5nc(-c6ccc(C(=O)N7CCCC8C9CCCN(C(=O)c%10ccc(-c%11nc%12ccc(-c%13ccc%14nc(-c%15ccc(C(=O)NCCN(C)C)cc%15)[nH]c%14c%13)cc%12[nH]%11)cc%10)C9CCC87)cc6)[nH]c5c4)cc3[nH]2)cc1` (stereo not shown) [Compound 452]: 3.1 µM; for `CN(C)CCNC(=O)c1ccc(-c2nc3ccc(-c4ccc5nc(-c6ccc(C(=O)NC[C@H]7CCCN7C(=O)c7ccc(-c8nc9ccc(-c%10ccc%11nc(-c%12ccc(C(=O)NCCN(C)C)cc%12)[nH]c%11c%10)cc9[nH]8)cc7)cc6)[nH]c5c4)cc3[nH]2)cc1` [Compound 453]: 6.2 µM; for `CN(C)CCNC(=O)c1ccc(-c2nc3ccc(-c4ccc5nc(-c6ccc(C(=O)N[C@@H]7CCN(C(=O)c8ccc(-c9nc%10ccc(-c%11ccc%12nc(-c%13ccc(C(=O)NCCN(C)C)cc%13)[nH]c%12c%11)cc%10[nH]9)cc8)C7)cc6)[nH]c5c4)cc3[nH]2)cc1` [Compound 454]: 3.4 µM.

The compound `CN(C)CCNC(=O)c1ccc(-c2nc3ccc(-c4ccc5nc(-c6ccc(C(=O)N[C@H]7CCN(C(=O)c8ccc(-c9nc%10ccc(-c%11ccc%12nc(-c%13ccc(C(=O)NCCN(C)C)cc%13)[nH]c%12c%11)cc%10[nH]9)cc8)C7)cc6)[nH]c5c4)cc3[nH]2)cc1` [Compound 455] registered an IC50 in the test on r(CUG)12-MBNL1 complex of 3.8 µM. Same read-out and setting: the same measure for `CN(C)CCCOc1ccc(-c2nc3cc(-c4ccc5[nH]c(-c6ccc(C(=O)NCCCn7cc(-c8cccc(NC(=O)c9ccc(-c%10nc%11cc(-c%12ccc%13[nH]c(-c%14ccc(C(=O)NCCN(C)C)cc%14)nc%13c%12)ccc%11[nH]%10)cc9)c8)nn7)cc6)nc5c4)ccc3[nH]2)cc1` [Compound 456]: 45.1 µM; for `CN(C)CCCOc1ccc(-c2nc3cc(-c4ccc5[nH]c(-c6ccc(C(=O)NCCCn7cc(CCCNC(=O)c8ccc(C9=Nc%10cc(-c%11ccc%12[nH]c(-c%13ccc(C(=O)NCCN(C)C)cc%13)nc%12c%11)ccc%10C9)cc8)nn7)cc6)nc5c4)ccc3[nH]2)cc1` [Compound 457]: over 200 µM. Regarding `CN(C)CCNC(=O)c1ccc2nc(-c3ccc4cc(-c5nc6ccc(C(=O)NCCN(C)C)cc6[nH]5)ccc4c3)[nH]c2c1` [Compound 462], in test [1], the “MBNL1 % splicing rescue at 10 μM” value is listed as −2.7%. `CC(C(=O)N(C)C(C)C(=O)N(C)C(C)C(=O)N(C)C(C)C(=O)N(CCCn1cc(CCCCN(C)CCOc2ccc(-c3nc4cc(-c5ccc6[nH]c(-c7ccc(OCCN(C)C)cc7)nc6c5)ccc4[nH]3)cc2)nn1)CC(N)=O)N(C)C(=O)CNCCCn1cc(CCCCN(C)CCOc2ccc(-c3nc4cc(-c5ccc6[nH]c(-c7ccc(OCCN(C)C)cc7)nc6c5)ccc4[nH]3)cc2)nn1` (stereo not shown) [compound 164] registered an IC50 with r(CUG)12-MBNL1 complex of 1.91 µM.
